Read-outs that look alike come from different tables or passages of the source.
Tests used:
[1] = system: MM1.R cells; experiment: CellTiter-Glo cell viability, MM1.R; format: cell-based, human; settings: for GI50: Homo sapiens, MM.1R
[2] = Caco-2 permeability; format: in vitro ADME; settings: human
Method: Caco-2 cells were cultured for 21 days in transwell 24-well plates at 37° C., 95% humidity, 5% CO2. Integrity of cell monolayer was confirmed by TEER (transepithelial electrical resistance) and Lucifer yellow. Payloads were spiked in duplicate at 10 μM, separately, on both sides of the cell monolayer. Permeability rates from the apical to basolateral (A-B) direction and the basolateral to apical (B-A) direction were determined by sampling aliquots from both chambers immediately after treatment (t=0) and following incubation for 2 hours. Samples were protein precipitated with organic solvent containing internal standard and analyzed by LC-MS/MS (SCIEX; API 5500). The area ratio responses of payload/internal standard over time in both directions were used to generate permeability (cm/sec) values. Efflux ratio was calculated by dividing B-A/A-B. Control compounds for low and high permeability and efflux behaved as expected.

[3] = PAMPA permeability; format: in vitro ADME; settings: read-out: Stability, Mean, Perm PAMPA
[4] = system: U266B1 cells; experiment: 6-day CellTiter-Glo cell viability, U266B1; format: cell-based, human
[5] = system: RPMI-8226 cells; experiment: 6-day CellTiter-Glo cell viability, RPMI-8226; format: cell-based, human

CC[C@H](O)[C@@H](C)[C@H]1O[C@@H]1C[C@@](C)(O)/C=C/C=C(\C)[C@H]1OC(=O)C[C@H](O)CC[C@@](C)(O)[C@@H](OC(=O)N2CCNCC2)/C=C/[C@@H]1C [D1, (2S,3S,6S,7R,10R,E)-7,10-dihydroxy-2-((R,2E,4E)-6-hydroxy-7-((2R,3R)-3-((2R,3S)-3-hydroxypentan-2-yl)oxiran-2-yl)-6-methylhepta-2,4-dien-2-yl)-3,7-dimethyl-12-oxooxacyclododec-4-en-6-yl piperazine-1-carboxylate]
GI50 ([1]; 96 h, read-out: CTGlo Mean GI50 MM1.R 96 h): 147 nM
GI50 ([1]; 144 h): 89.3 nM
AUC (nM * % relative viability) ([1]; MM1R cells, 6 days): 640.2408 nM * % relative viability
LD50 ([1]; MM1R cells, 6 days, CellTiter-Glo): 283.0093 nM
RminAve ([1]; MM1R cells, 6 days, negative = cell death vs T0): −99.9109%
CTGlo Mean LD50 MM1.R 96 h ([1]; payload alone, MM1.R, 96 h): 510.8 nM
efflux ratio at 2 h, 10 μM ([2]; B-A/A-B): 1.5
Papp A→B at 2 h, 10 μM ([2]; apical to basolateral, 10 μM, 2 hours, read-out: Permeability, Mean, Caco-2 A-B Perm): 0.2 ×10⁻⁶ cm/s
Papp B→A at 2 h, 10 μM ([2]; basolateral to apical, 10 μM, 2 hours, read-out: Permeability, Mean, Caco-2 B-A Perm): 0.3 ×10⁻⁶ cm/s
Papp [3]: < 0.1 ×10⁻⁶ cm/s
GI50 ([4]; Homo sapiens, 144 h): 238 nM
AUC (nM * % relative viability) ([4]; U266B1 cells, 6 days): 712.6903 nM * % relative viability
LD50 ([4]; U266B1 cells, 6 days, CellTiter-Glo): 504.8119 nM
RminAve ([4]; U266B1 cells, 6 days, negative = cell death vs T0): −94.2191%
GI50 ([5]; Homo sapiens, RPMI-8226, 144 h): 122 nM
AUC (nM * % relative viability) ([5]; RPMI8226 cells, 6 days): 648.8833 nM * % relative viability
LD50 ([5]; RPMI8226 cells, 6 days, CellTiter-Glo): 253.1965 nM
RminAve ([5]; RPMI8226 cells, 6 days, negative = cell death vs T0): −99.6002%

Source: US12043670B2, “Anti-BCMA antibody-drug conjugates and methods of use” (Eisai R&D Management Co., Ltd., priority 2020, dated 2024)
